Counter-ions that a name gives are not always drawn. Bounds are passed on as bounds.

For orientation: IC50 means the concentration at which inhibition is half-maximal. Low readings indicate higher potency, high ones lower potency. Usually Ki stands for a measure of affinity in units of concentration, obtained from inhibition or displacement.

Experiment [1] relates to human large intestine cancer cell line (HCT-116). Briefly: Human large intestine cancer (HCT-116) cell growth inhibition test. The class given is cell-based. The note with it: 72 h, HCT-116, culture for 3 days, sulforhodamine B absorbance. Here is the method:
Human Large Intestine Cancer (HCT-116) Cell Growth Inhibition Test
The measurement of a human large intestine cancer cell growth inhibitory effect was carried out by modifying the method of Simak et al. (Cancer Research, 69, 6208 (2009)).
A human large intestine cancer cell line (HCT-116) (manufactured by DS Pharma Biomedical Co., Ltd., Cat. No. EC91091005) was cultured in McCoy's 5a (manufactured by GIBCO/Thermo Fisher Scientific, Inc., REF. 16600-082) medium containing 10% FBS (manufactured by GIBCO/Thermo Fisher Scientific, Inc., REF. 10082-147) and 1% penicillin/streptomycin/amphotericin B (manufactured by GIBCO/Thermo Fisher Scientific, Inc., REF. 15240-096) and inoculated at 1.0×10^3 cells/well in a 96-well plate (manufactured by Corning Inc., REF. 353072). After overnight culture in a carbon dioxide incubator, it was replaced with a fresh McCoy's 5a medium containing 10% FBS on the next day, and a test compound dissolved in DMSO (manufactured by Wako Pure Chemical Industries, Ltd., Code No. 043-07216) (final DMSO concentration: 0.1%) was added and left standing in a carbon dioxide incubator. After culturing for 3 days, the absorbance of each well was measured by using In Vitro Toxicology Assay Kit Sulforhodamine B based (manufactured by Sigma-Aldrich Co. LLC., Pcode 1001910706).
The rate of inhibition of cell growth at each concentration was calculated from the test compound concentration and the absorbance of sulforhodamine B, and the concentration of the test compound necessary for inhibiting 50% of cell growth (IC50 value) was calculated by using EXSUS (version 8.0.0 or version 8.0.1, manufactured by CAC Exicare Corp.).

In experiment [2] the target is T1, CDK2 (Homo sapiens, UniProt P24941).
T1 construct: purchased Invitrogen Corp. PV3267
Nature of the experiment: CDK2 enzyme inhibition test. The class given is biochemical. The following applies: Ki=IC50/(1+S/Km); 33P bound to MBP, [γ-33P]ATP, 30° C. for 20 minutes; read-out: Ki value of CDK2 inhibitory activity. How it is done: CDK2 Enzyme Inhibition Test
The preparation of a buffer solution was performed by mixing a HEPES buffer solution (pH 7.4), DTT, Triton X-100, and MgCl2. A 500 μM [γ-^33P]ATP solution was used by diluting a 10 mM ATP solution and a commercially available [γ-^33P]ATP solution (manufactured by PerkinElmer, Inc., Code No. NEG-302H) with the buffer solution. A CDK2 solution was used by diluting commercially available CDK2 (manufactured by Invitrogen Corp., Catalog No. PV3267) with the buffer solution. A substrate solution was used by diluting MBP with the buffer solution. As for the preparation of a reaction solution, the buffer solution, the 500 μM [γ-^33P]ATP solution, the CDK2 solution, and the substrate solution were mixed at 4° C. to obtain a reaction solution.
(§1) CDK2 enzyme reaction was performed by adding 5 μL of a test compound solution prepared with 10% DMSO/90% injectable distilled water, and 45 μL of the reaction solution in a 1.5 mL microtube at 4° C. and reacting in the microtube at 30° C. for 20 minutes in a water bath incubator. After the reaction, a 10% aqueous TCA solution was added to each microtube while cooled to 4° C., and mixed to terminate the reaction. The resultant was left standing at 4° C. for 10 minutes and then centrifuged in a centrifuge, and the supernatant was discarded. Next, a 2% aqueous TCA solution was added, mixed thereto, and then centrifuged in a centrifuge, and the supernatant was discarded. This washing operation was performed twice. After the washing, precipitates were dissolved in a 1 N aqueous NaOH solution, and the radioactivity was measured with a liquid scintillation counter.
The calculation of the inhibitory activity of the test compound against CDK2 was performed as a test compound concentration inhibiting 50% of the amount of ^33P bound to MBP (IC50 value) by using EXSUS (version 8.0.0 or version 8.0.1, manufactured by CAC Exicare Corp.).
(§2) The calculation of a Ki value was performed according to the following calculation expression. S means the concentration of ATP contained in the reaction solution, and Km means a Michaelis-Menten constant. Ki=IC50/(1+S/Km)

Experiment [3] concerns the target T2, CDK7 (Homo sapiens, UniProt P50613).
T2 construct: purchased Carna Biosciences, Inc. 04-108
Nature of the experiment: CDK7 enzyme inhibition test. The format is biochemical. The following applies: Ki=IC50/(1+S/Km); 33P bound to MBP, [γ-33P]ATP, 30° C. for 20 minutes; read-out: Ki value of CDK7 inhibitory activity. Here is the method:
CDK7 Enzyme Inhibition Test
The preparation of a buffer solution was performed by mixing a N-2-hydroxyethylpiperazine-N′-2-ethanesulfonic acid buffer solution (HEPES buffer solution) (pH 7.4), dithiothreitol (DTT), Triton X-100, and magnesium chloride (MgCl2). A 500 μM [γ-^33P]ATP solution was used by diluting a 10 mM ATP solution and a commercially available [γ-^33P]ATP solution (manufactured by PerkinElmer, Inc., Code No. NEG-302H) with the buffer solution. A CDK7 solution was used by diluting commercially available CDK7 (manufactured by Carna Biosciences, Inc., Catalog No. 04-108) with the buffer solution. A substrate solution was used by diluting myelin basic protein (MBP) with the buffer solution. As for the preparation of a reaction solution, the buffer solution, the 500 μM [γ-^33P]ATP solution, the CDK7 solution, and the substrate solution were mixed at 4° C. to obtain a reaction solution.
CDK7 enzyme reaction was performed by adding 5 μL of a test compound solution prepared with 10% dimethyl sulfoxide (DMSO)/90% injectable distilled water, and 45 μL of the reaction solution to a 1.5 mL microtube at 4° C. and reacting in the microtube at 30° C. for 20 minutes in a water bath incubator. After the reaction, a 10% aqueous trichloroacetic acid (TCA) solution was added to each microtube while cooled to 4° C., and mixed to terminate the reaction. The resultant was left standing at 4° C. for 10 minutes and then centrifuged in a centrifuge, and the supernatant was discarded. Next, a 2% aqueous TCA solution was added, mixed, and then centrifuged in a centrifuge, and the supernatant was discarded. This washing operation was performed twice. After the washing, precipitates were dissolved in a 1 N aqueous sodium hydroxide (NaOH) solution, and the energy quantity (radioactivity) of the reaction product was measured with a liquid scintillation counter.
The calculation of the inhibitory activity of the test compound against CDK7 was performed as a test compound concentration inhibiting 50% of the amount of ^33P bound to MBP (IC50 value) by using EXSUS (version 8.0.0 or version 8.0.1, manufactured by CAC Exicare Corp.).
as §2

The target of experiment [4] is T3, PAK4 (Homo sapiens, UniProt O96013).
T3 construct: purchased Invitrogen Corp. PV4212
T3 sequence (O96013 whole entry): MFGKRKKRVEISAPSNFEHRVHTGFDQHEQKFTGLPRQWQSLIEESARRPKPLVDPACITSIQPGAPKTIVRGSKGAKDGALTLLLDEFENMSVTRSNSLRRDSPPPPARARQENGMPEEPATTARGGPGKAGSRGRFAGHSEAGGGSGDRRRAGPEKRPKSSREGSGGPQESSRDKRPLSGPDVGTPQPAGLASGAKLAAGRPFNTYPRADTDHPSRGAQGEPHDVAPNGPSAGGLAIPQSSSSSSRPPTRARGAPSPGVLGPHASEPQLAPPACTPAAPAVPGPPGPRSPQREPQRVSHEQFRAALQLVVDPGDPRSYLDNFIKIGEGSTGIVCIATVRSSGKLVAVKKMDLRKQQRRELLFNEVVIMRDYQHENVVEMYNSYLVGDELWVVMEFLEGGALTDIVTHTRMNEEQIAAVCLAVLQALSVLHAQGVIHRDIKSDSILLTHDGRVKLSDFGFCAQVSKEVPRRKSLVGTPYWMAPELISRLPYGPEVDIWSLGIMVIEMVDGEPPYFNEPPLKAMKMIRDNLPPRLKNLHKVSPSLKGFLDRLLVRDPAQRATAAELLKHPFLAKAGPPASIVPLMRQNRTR
Briefly: PAK4 enzyme inhibition test. The class given is biochemical. The note with it: Ki=IC50/(1+S/Km); 33P bound to MBP, [γ-33P]ATP, 30° C. for 20 minutes; read-out: Ki value of PAK4 inhibitory activity. How it is done: PAK4 Enzyme Inhibition Test
The preparation of a buffer solution was performed by mixing a trishydroxyaminomethane buffer solution (Tris buffer solution) (pH 7.5), DTT, Triton X-100, MgCl2, ethylene glycol bis(β-aminoethyl ether)-N,N,N′,N′-tetraacetic acid (EGTA), (3-glycerol phosphate, and sodium orthovanadate(V). A 40 μM [γ-^33P]ATP solution was used by diluting a 10 mM ATP solution and a commercially available [γ-^33P]ATP solution (manufactured by PerkinElmer, Inc., Code No. NEG-302H) with the buffer solution. A PAK4 solution was used by diluting commercially available PAK4 (manufactured by Invitrogen Corp., Catalog No. PV4212) with the buffer solution. A substrate solution was used by diluting MBP with the buffer solution. As for the preparation of a reaction solution, the buffer solution, the 40 μM [γ-^33P]ATP solution, the PAK4 solution, and the substrate solution were mixed at 4° C. to obtain a reaction solution.
as §1, with “PAK4” for “CDK2”, “mixed,” for “mixed thereto,”
The calculation of the inhibitory activity of the test compound against PAK4 was performed as a test compound concentration inhibiting 50% of the amount of ^33P bound to MBP (IC50 value) by using EXSUS (version 8.0.0 or version 8.0.1, manufactured by CAC Exicare Corp.).
as §2

T2 sequence (P50613 whole entry): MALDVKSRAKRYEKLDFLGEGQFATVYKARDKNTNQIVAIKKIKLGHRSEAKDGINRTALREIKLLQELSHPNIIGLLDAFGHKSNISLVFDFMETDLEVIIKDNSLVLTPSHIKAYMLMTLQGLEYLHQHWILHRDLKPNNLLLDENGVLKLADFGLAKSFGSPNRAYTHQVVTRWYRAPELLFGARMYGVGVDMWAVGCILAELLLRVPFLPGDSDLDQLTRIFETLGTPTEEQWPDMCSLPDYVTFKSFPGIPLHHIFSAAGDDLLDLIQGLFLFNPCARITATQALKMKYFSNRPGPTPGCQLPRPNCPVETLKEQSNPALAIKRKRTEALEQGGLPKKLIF
T2 sequence (P51946 whole entry partner): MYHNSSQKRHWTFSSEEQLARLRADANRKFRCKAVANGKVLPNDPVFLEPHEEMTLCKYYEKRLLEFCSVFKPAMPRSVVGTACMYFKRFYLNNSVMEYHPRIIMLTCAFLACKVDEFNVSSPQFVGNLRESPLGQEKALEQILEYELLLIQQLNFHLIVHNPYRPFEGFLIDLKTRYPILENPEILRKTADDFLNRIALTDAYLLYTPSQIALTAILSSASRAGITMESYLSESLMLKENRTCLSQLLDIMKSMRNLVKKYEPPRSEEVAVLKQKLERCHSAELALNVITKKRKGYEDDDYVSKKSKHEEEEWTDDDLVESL
T2 sequence (P51948 whole entry partner): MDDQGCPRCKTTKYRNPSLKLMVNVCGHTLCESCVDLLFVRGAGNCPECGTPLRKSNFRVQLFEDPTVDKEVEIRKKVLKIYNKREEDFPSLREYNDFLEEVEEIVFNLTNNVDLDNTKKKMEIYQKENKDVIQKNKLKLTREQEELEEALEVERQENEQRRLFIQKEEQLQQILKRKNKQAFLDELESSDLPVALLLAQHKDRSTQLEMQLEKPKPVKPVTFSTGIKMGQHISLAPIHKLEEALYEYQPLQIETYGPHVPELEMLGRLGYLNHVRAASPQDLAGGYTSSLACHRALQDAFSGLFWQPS

`CC[Si](C)(C)C(C)(C)C(=O)Nc1n[nH]c2c1CN(C(=O)N[C@H](CO)c1ccccc1)C2(C)C` [II-116, (S)-3-[2-(Ethyldimethylsilyl)-2-methylpropanamido]-N-(2-hydroxy-1-phenylethyl)-6,6-dimethyl-4,6-dihydropyrrolo[3,4-c]pyrazole-5(1H)-carboxamide] returned an IC50 in experiment [1] of at most 500 nM. The Ki is at least 1000 nM in experiment [2], at most 50 nM in experiment [3] and at least 500 nM in experiment [4].

The molecule `CC(C)(O)C[C@@H](NC(=O)N1Cc2c(NC(=O)C3([Si](C)(C)C)CC3)n[nH]c2C1(C)C)c1ccccc1` [III-298, (R)—N-(3-Hydroxy-3-methyl-1-phenylbutyl)-6,6-dimethyl-3-[1-(trimethylsilyl)cyclopropanecarboxamido]-4,6-dihydropyrrolo[3,4-c]pyrazole-5(1H)-carboxamide] came in with an IC50 in experiment [1] of at most 500 nM. Further, the results for the inhibition constant Ki in experiment [2], in experiment [3] and in experiment [4] were at least 1000 nM, at most 50 nM and at least 500 nM, respectively.

In turn, `CC(C)(CO)C(NC(=O)N1Cc2c(NC(=O)C3([Si](C)(C)C)CC3)n[nH]c2C1(C)C)c1ccccc1` (centres unmarked) [III-353, N-(3-Hydroxy-2,2-dimethyl-1-phenylpropyl)-6,6-dimethyl-3-[1-(trimethylsilyl)cyclopropanecarboxamido]-4,6-dihydropyrrolo[3,4-c]pyrazole-5(1H)-carboxamide] had an IC50 in experiment [1] of at most 500 nM. Besides, the inhibitory constant (Ki) is at least 1000 nM in experiment [2], at most 50 nM in experiment [3] and at least 500 nM in experiment [4].

In the case of `CC1(C)c2[nH]nc(NC(=O)C3([Si](C)(C)C)CCC3)c2CN1C(=O)N[C@@H](CO)c1ccccc1` [IV-115, (R)—N-(2-Hydroxy-1-phenylethyl)-6,6-dimethyl-3-[1-(trimethylsilyl)cyclobutanecarboxamido]-4,6-dihydropyrrolo[3,4-c]pyrazole-5(1H)-carboxamide], the Ki in experiment [2] is at least 1000 nM; in experiment [4] it was at least 500 nM.

As to `CC1(C)c2[nH]nc(NC(=O)C3([Si](C)(C)C)CCC3)c2CN1C(=O)N[C@H](C(=O)O)c1ccccc1` [IV-403 (sodium salt), Sodium (S)-2-{6,6-dimethyl-3-[1-(trimethylsilyl)cyclobutanecarboxamido]-1,4,5,6-tetrahydropyrrolo[3,4-c]pyrazole-5-carboxamido}-2-phenylacetate], the Ki was at least 1000 nM in experiment [2], at most 50 nM in experiment [3] and at least 500 nM in experiment [4].

Regarding `CC(O)CNC(=O)N1Cc2c(NC(=O)C3([Si](C)(C)C)CCC3)n[nH]c2C1(C)C` (centres unmarked) [IV-442, N-(2-Hydroxypropyl)-6,6-dimethyl-3-[1-(trimethylsilyl)cyclobutanecarboxamido]-4,6-dihydropyrrolo[3,4-c]pyrazole-5(1H)-carboxamide], the IC50 in experiment [1] is at most 500 nM. Further, the figures for the inhibition constant Ki in experiment [2], in experiment [3] and in experiment [4] were at least 1000 nM, at most 50 nM and at least 500 nM, respectively.

The molecule `CC(C)(O)C[C@@H](NC(=O)N1Cc2c(NC(=O)C3([Si](C)(C)C)CCC3)n[nH]c2C1(C)C)c1ccccc1F` [IV-883, (R)—N-[1-(2-Fluorophenyl)-3-hydroxy-3-methylbutyl]-6,6-dimethyl-3-[1-(trimethylsilyl)cyclobutanecarboxamido]-4,6-dihydropyrrolo[3,4-c]pyrazole-5(1H)-carboxamide] displayed an IC50 in experiment [1] of at most 500 nM. For the same molecule, the Ki is at least 1000 nM in experiment [2] and at least 500 nM in experiment [4].

`CC(C)(CO)C(NC(=O)N1Cc2c(NC(=O)C3([Si](C)(C)C)CCC3)n[nH]c2C1(C)C)c1ccccc1F` (centres unmarked) [IV-890, N-[1-(2-Fluorophenyl)-3-hydroxy-2,2-dimethylpropyl]-6,6-dimethyl-3-[1-(trimethylsilyl)cyclobutanecarboxamido]-4,6-dihydropyrrolo[3,4-c]pyrazole-5(1H)-carboxamide]: in experiment [1], the IC50 is at most 500 nM. Further, in experiment [2], the Ki was at least 1000 nM.
